Measurements as given in patent US20250082611A1, “DOSING REGIMEN FOR AN NLRP3 INHIBITOR IN THE TREATMENT OF OSTEOARTHRITIS” (Novartis AG, priority 2021, published 2025).

Test system: IL-1β production in PMA-differentiated THP-1 cells
Assay: IL-1β production in PMA-differentiated THP-1 cells stimulated with gramicidin (hTHP-1 assay, 2% fetal bovine serum)
Type: cell-based
Settings: Homo sapiens, hTHP-1 assay containing 2% fetal bovine serum
Experimental: THP-1 cells were purchased from the American Type Culture Collection and sub-cultured according to instructions from the supplier. Cells were cultured in complete RPMI 1640 (containing 10% heat inactivated FBS, penicillin (100 units/ml) and streptomycin (100 μg/ml)), and maintained in log phase prior to experimental setup. Prior to the experiment, compounds were dissolved in dimethyl sulfoxide (DMSO) to generate a 30 mM stock. The compound stock was first pre-diluted in DMSO to 3, 0.34, 0.042 and 0.0083 mM intermediate concentrations and subsequently spotted using Echo550 liquid handler into an empty 384-well assay plate to achieve desired final concentration (e.g. 100, 33, 11, 3.7, 1.2, 0.41, 0.14, 0.046, 0.015, 0.0051, 0.0017 μM). DMSO was backfilled in the plate to achieve a final DMSO assay concentration of 0.37%. The plate was then sealed and stored at room temperature until required.
THP-1 cells were treated with PMA (Phorbol 12-myristate 13-acetate) (20 ng/ml) for 16-18 hours. On the day of the experiment the media was removed and adherent cells were detached with trypsin for 5 minutes. Cells were then harvested, washed with complete RPMI 1640, spun down, and resuspended in RPMI 1640 (containing 2% heat inactivated FBS, penicillin (100 units/ml) and streptomycin (100 μg/ml). The cells were plated in the 384-well assay plate containing the spotted compounds at a density of 50,000 cells/well (final assay volume 50 μl). Cells were incubated with compounds for 1 hour and then stimulated with gramicidin (5 μM) (Enzo) for 2 hours. Plates were then centrifuged at 340 g for 5 min. Cell free supernatant (40 μL) was collected using a 96-channel PlateMaster (Gilson) and the production of IL-1β was evaluated by HTRF (cisbio). The plates were incubated for 18 h at 4° C. and read using the preset HTRF program (donor emission at 620 nm, acceptor emission at 668 nm) of the SpectraMax i3x spectrophotometer (Molecular Devices, software SoftMax 6). A vehicle only control and a dose titration of CRID3 (100-0.0017 μM) were run concurrently with each experiment. […]

Structure (SMILES) | IC50
CC(C)(O)c1ncc(S(N)(=O)=NC(=O)Nc2c3c(cc4c2CCC4)CCC3)s1 (centres unmarked) [Compound I, N′-(1,2,3,5,6,7-hexahydro-s-indacen-4-ylcarbamoyl)-2-(2-hydroxypropan-2-yl) thiazole-5-sulfonimidamide] | 40 to 200 nM
CC(C)(O)c1ncc([S@@](N)(=O)=NC(=O)Nc2c3c(cc4c2CCC4)CCC3)s1 [Compound IB, (S)-N′-((1,2,3,5,6,7-hexahydro-s-indacen-4-yl)carbamoyl)-2-(2-hydroxypropan-2-yl) thiazole-5-sulfonimidamide] | 200 to 1000 nM
